These results are taken from article PMC2626250 (Toxicology and applied pharmacology, 2008).

One data set relates to mouse lung microsomes. The data set is described as follows: Effect of inhibitors on S-oxidation of ETA by mouse lung microsomes. The class given is in vitro ADME. The conditions noted are these: 200 μM ETA.
A further data set relates to mouse liver microsomes. The data set is described as follows: Effect of inhibitors on S-oxidation of ETA by mouse liver microsomes. Format: in vitro ADME. Conditions: 200 μM ETA.
In another data set the test system is mFmos and hFMOs. The conditions noted are these: 4 mM GSH added following 15 minutes of incubation; 200 μM ETA.
For data set [1] the following is noted: oral administration of therapeutic doses; ref Conte et al., 2000; cited from earlier work.
The next data set concerns EtaA. Conditions: pH 7.5; cited from earlier work.

Consider `NC(N)=S` [thiourea], for which the “reduction of ETA oxygenation to ETASO” value with mouse lung microsomes (thiourea 200 μM, average) came out at 76.9%; in the data set with mouse liver microsomes (thiourea 200 μM, average) it was 73.5%.
`N[C@@H](CCC(=O)N[C@@H](CS)C(=O)NCC(=O)O)C(=O)O` [GSH, Glutathione]: the ETASO removed in the data set with mFmos and hFMOs is around 50%.
For the molecule `CCCC(C(=O)OCCN(CC)CC)(c1ccccc1)c1ccccc1` [SKF-525A], the “activity remaining (appearance of ETASO)” value with mouse lung microsomes (SKF-525A 1 mM) stood at 102.4%; with mouse liver microsomes (SKF-525A 1 mM), 82.9%.
`CCc1cc(C(N)=S)ccn1` [ETA, ethionamide]: in data set [1], the “concentration of ETA in human plasma” value is “approximately 6 μM”, the “concentration of ETA in lung alveolar cells” value is around 2.4 µM and the “concentration of ETA in lung epithelial lining fluid” value is around 35 µM. Moreover, in the data set on EtaA, the “specificity constant for the formation of ETASO” value is on record as 0.04.
